The source of these data is patent publication US8404692B2, “Pyrimidin-4-yl-3, 4-dihydro-2H-pyrrolo [1,2A] pyrazin-1-one compounds” (Cyclacel Limited, priority 2005, dated 2013).

Structures are written as SMILES.

The target of one assay is human CDK7/cyclin H (Homo sapiens, UniProt P50613). The assay can be described thus: CDK 7 and 9 assays: CDK7/H. It counts as biochemical. As to conditions: in vitro kinase data. How it is done:
(§1) The compounds of the invention above were investigated for their ability to inhibit the enzymatic activity of various protein kinases. This was achieved by measurement of incorporation of radioactive phosphate from ATP into appropriate polypeptide substrates. Recombinant protein kinases and kinase complexes were produced or obtained commercially. Assays were performed using 96-well plates and appropriate assay buffers (typically 25 mM β-glycerophosphate, 20 mM MOPS, 5 mM EGTA, 1 mM DTT, 1 mM […], pH 7.4), into which were added 2-4 μg of active enzyme with appropriate substrates. The reactions were initiated by addition of Mg/ATP mix (15 mM MgCl2+100 μM ATP with 30-50 kBq per well of [γ-^32P]-ATP) and mixtures incubated as required at 30° C. Reactions were stopped on ice, followed by filtration through p81 filterplates or GF/C filterplates (Whatman Polyfiltronics, Kent, UK). After washing 3 times with 75 mM aq orthophosphoric acid, plates were dried, scintillant added and incorporated radioactivity measured in a scintillation counter (TopCount, Packard Instruments, Pangbourne, Berks, UK). Compounds for kinase assay were made up as 10 mM stocks in DMSO and diluted into 10% DMSO in assay buffer. Data was analysed using curve-fitting software (GraphPad Prism version 3.00 for Windows, GraphPad Software, San Diego Calif. USA) to determine IC50 values (concentration of test compound which inhibits kinase activity by 50%).
CTD peptide substrate (biotinyl-Ahx-(Tyr-Ser-Pro-Thr-Ser-Pro-Ser)4-NH2; 1-2 mg/mL) and recombinant human CDK7/cyclin H, CDK9/cyclin T1, or CDK9/cyclin K (0.5-2 μg) were incubated for 45 min at 30° C. in the presence of varying amounts of test compound in 20 mM MOPS pH 7.2, 25 mM β-glycerophosphate, 5 mM EGTA, 1 mM DTT, 1 mM sodium vanadate, 15 mM MgCl2, and 100 μM ATP (containing a trace amount of ^32PγATP) in a total volume of 25 μL in a 96-well microtiter plate. […] Microscint 40 scintillation liquid (50 μL) was added to each well, and the amount of ^32P incorporation for each sample was measured using a Packard Topcount microplate scintillation counter.

Another assay has as its target CDK2/E (Homo sapiens, UniProt P24941). As to the kind of experiment: In vitro kinase assay CDK2/E. It counts as biochemical. As to conditions: in vitro kinase data. As for the experimental part: as §1, with “Data was analysed using curve-fitting software (GraphPad Prism version 3.00 for Windows, GraphPad Software, San Diego Calif. USA) to determine IC50 values (concentration of test compound which inhibits kinase activity by 50%).” left out

For assay [1], the system named is nuclear phospho-Histone H3 and/or MPM2 staining. As to the kind of experiment: Cellomics Arrayscan assay for mitotic index (PH3 and MPM2 staining). It counts as cell-based. How it is done: The percentage of cells with nuclear phospho-Histone H3 and/or MPM2 staining were determined in 96-well plate assays using the Cellomics Arrayscan Mitotic Index HitKit protocol (Cellomics Inc). Briefly, cells were plated at 10^4 cells per well and incubated for 16-18 h at 37° C. Compounds were added and the cells incubated for the appropriate time before a 15 min fixation in 3.7% formaldehyde in wash buffer (Cellomics Inc.). Cells were permeabilised in 0.2% Triton in wash buffer for 15 min, washed, then incubated with primary antibodies that specifically recognise mitotic epitopes; rabbit anti-phosphohistone H3 (Upstate 06570) or mouse anti-phospho-Ser/Thr-Pro MPM2 (Upstate 05-368). After a 1 h incubation cells were washed and incubated with secondary FITC-conjugated anti-mouse and/or TRITC-conjugated anti-rabbit secondary antibodies (Jackson laboratories) and Hoescht dye. After a further 1 h incubation the cells were washed, then the plate was analysed using a Cellomics Arrayscan II automated fluorescent microscopy system to detect nuclear fluorescent staining. Data for 2000 cells per well were stored and the percentage of cells expressing mitotic epitopes compared to total cells (stained with Hoescht dye) was calculated using the Cellomics mitotic index algorithm.

A further assay deals with T1, aurora-A (human) (Homo sapiens, UniProt O14965).
T1 construct: purchased Upstate, Dundee, UK
T1 sequence (O14965 1-403): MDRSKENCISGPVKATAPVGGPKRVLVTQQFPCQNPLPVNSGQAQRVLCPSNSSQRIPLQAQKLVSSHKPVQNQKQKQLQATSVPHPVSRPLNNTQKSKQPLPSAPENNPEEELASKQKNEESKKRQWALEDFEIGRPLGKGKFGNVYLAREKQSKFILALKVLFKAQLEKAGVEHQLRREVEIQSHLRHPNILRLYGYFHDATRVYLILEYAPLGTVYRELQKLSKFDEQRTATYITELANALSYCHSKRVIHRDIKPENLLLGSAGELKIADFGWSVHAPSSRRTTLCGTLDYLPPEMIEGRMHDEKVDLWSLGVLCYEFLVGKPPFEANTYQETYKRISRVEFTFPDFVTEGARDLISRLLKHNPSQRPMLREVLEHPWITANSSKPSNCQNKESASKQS
The assay can be described thus: Aurora-A (human) kinase assay. It counts as biochemical. As to conditions: read-out: Activity (Aurora A activity, IC50 grading). In a few lines:
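Radiometric assay measuring [γ-32P] transfer from 100 μM ATP to 500 μM Kemptide by 2-5 ng active human aurora-A, pH 7.5 buffer, 30 min at 30° C. Incorporated label captured on P81 filters and counted by scintillation; IC50 from curve fitting.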

Another assay concerns A2780. The assay can be described thus: MTT cytotoxicity assay A2780. It counts as cell-based. The settings on record: Homo sapiens; A2780 cells, 96-h MTT. As for the experimental part:
(§2) The compounds of the invention were subjected to a standard cellular proliferation assay using cell lines […] and MiaPaCa (obtained from The European Collection of Cell Cultures). […] C.; Thomas, D. G.; Darling, J. L. Anti Cancer Drugs 1996, 7, 331-8; Loveland, B. E.; Johns, T. G.; Mackay, I. R.; Vaillant, F.; Wang, Z. X.; Hertzog, P. J. Biochemistry International 1992, 27, 501-10). In short: cells were seeded into 96-well plates according to doubling time and incubated overnight at 37° C. […] MTT was made up as a stock of 5 mg/mL in cell media and filter-sterilised. Media was removed from cells followed by a wash with 200 μL PBS. MTT solution was then added at 20 μL per well and incubated in the dark at 37° C. for 4 h. MTT solution was removed and cells again washed with 200 μL PBS. MT dye was solubilised with […] per well of DMSO with agitation. Absorbance was read at 540 nm and data analysed using curve-fitting software (GraphPad Prism version 3.00 for Windows, GraphPad Software, San Diego Calif. USA) to determine IC50 values (concentration of test compound which inhibits cell growth by 50%).
For orientation: Tetrazolium dyes change colour on reduction, which living cells bring about.

In another assay the test system is MiaPaCa. The assay can be described thus: MTT cytotoxicity assay MiaPaCa. The format is cell-based. As to conditions: Homo sapiens, MIA PaCa-2; MiaPaCa cells, 96-h MTT. How it is done:
as §2

Chain of human CDK7/cyclin H (P50613 whole entry): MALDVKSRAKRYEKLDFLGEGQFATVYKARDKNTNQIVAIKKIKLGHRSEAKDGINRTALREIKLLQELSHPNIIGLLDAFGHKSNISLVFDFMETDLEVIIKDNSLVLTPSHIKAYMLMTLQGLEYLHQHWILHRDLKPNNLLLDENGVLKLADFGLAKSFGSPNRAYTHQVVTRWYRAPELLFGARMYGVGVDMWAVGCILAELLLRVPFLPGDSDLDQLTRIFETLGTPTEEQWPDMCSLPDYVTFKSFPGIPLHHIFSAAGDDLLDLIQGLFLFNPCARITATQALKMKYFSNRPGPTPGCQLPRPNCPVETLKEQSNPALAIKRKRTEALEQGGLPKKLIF
Chain of human CDK7/cyclin H (P51946 whole entry partner): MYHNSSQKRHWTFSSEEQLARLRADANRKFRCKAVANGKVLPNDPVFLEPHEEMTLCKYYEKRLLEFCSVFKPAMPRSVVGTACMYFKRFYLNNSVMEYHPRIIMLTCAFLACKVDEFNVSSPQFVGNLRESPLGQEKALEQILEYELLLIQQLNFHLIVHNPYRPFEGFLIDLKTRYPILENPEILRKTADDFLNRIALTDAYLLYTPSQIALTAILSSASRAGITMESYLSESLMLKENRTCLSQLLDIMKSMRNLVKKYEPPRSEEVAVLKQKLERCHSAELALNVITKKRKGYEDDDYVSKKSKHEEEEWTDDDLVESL

On to `Cc1c(-c2ccnc(Nc3ccc(F)cc3)n2)c(C)n2c1C(=O)NCC2` [Example I-1, 7-[2-(4-Fluoro-phenylamino)-pyrimidin-4-yl]-6,8-dimethyl-3,4-dihydro-2H-pyrrolo[1,2-a]pyrazin-1-one], for which the inhibition constant (Ki) was determined as 2.99 µM on human CDK7/cyclin H and 1.13 µM on CDK2/E. The IC50 in assay [1] (IC50 of phosphorylated Histone H3 staining normalised using MPM2 staining, read-out: MI (Cellomics) PH3/MPM2 IC50*) was 16.3 µM; on aurora-A (human) it was less than 1 µM; with A2780, 4.47 µM; in the assay on MiaPaCa, greater than 10 µM. The “MI (Cellomics) MPM2 % of Control**” value in assay [1] (cells stained with MPM2 Ab after treatment, as % of MPM2 stained cells treated with vehicle (DMSO)) was 239%.

Broadly, the Ki is a dissociation constant, usually derived from enzyme kinetics or from competition with a known ligand.
